Assay results reported in US7186354B2, “Anticorrosive treating concentrate” (NEC Electronics Corporation, priority 2000, dated 2007).

Assay: solubility of BTA in water (FIG. 1)
Format: physicochemical

solubility of BTA in water (10° C.): about 1%
solubility of BTA in water (20° C.): about 1.9%
solubility of BTA in water (30° C.): about 4%
solubility of BTA in water (80° C.): about 8%
solubility in water (water of 20° C.): about 1.9 wt-%
Compound: c1ccc2[nH]nnc2c1 [BTA, benzotriazole]
